Assay results reported in ChEMBL document CHEMBL1131016, “Carbocyclic analogues of the potent cytidine deaminase inhibitor 1-(beta-D-ribofuranosyl)-1,2-dihydropyrimidin-2-one (zebularine)” (J Med Chem, 1998).
Calls of active or inactive are those of the source. The rule behind the calls is not given here.

Assays:
Cytidine deaminase [1] = target: T1, Cytidine deaminase (Homo sapiens, UniProt P32320); test: Compound was tested for its binding affinity against human cytidine deaminase;16-fold less potent than that of zebularine (16.5 uM)
T1 sequence (P32320 whole entry): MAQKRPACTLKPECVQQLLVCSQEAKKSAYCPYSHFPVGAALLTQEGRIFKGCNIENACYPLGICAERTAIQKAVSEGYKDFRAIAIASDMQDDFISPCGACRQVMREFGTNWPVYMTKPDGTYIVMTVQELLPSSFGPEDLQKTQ

Cytidine deaminase [2] = target: T1, Cytidine deaminase; test: Inhibitory concentration of mouse or human Cytidine deaminase; No inhibition

fold less potent than zebularine (Cytidine deaminase [1])	inhibition (Cytidine deaminase [2])	SMILES
16		O=c1ncccn1C1CC(CO)[C@@H](O)[C@H]1O (some centres not stated)
	inactive	O=c1ncccn1[C@H]1[C@H](O)[C@H](O)C2(CO)C[C@H]12 (single isomer, unassigned)
